Measurements reported in the NIST ThermoML archive (doi:10.1021/je800999s).
± gives the expanded uncertainty stated by the source.

Assay: molar heat capacity at constant pressure; xn = mol fraction of the nth substance listed
Details: 101 kPa, Liquid, Large sample (1 g) DSC

CN1CCCC1=O [N-methylpyrrolidone] + O
molar heat capacity at constant pressure [J/K/mol]
Details | x1 = 0.0999 | x1 = 0.1998 | x1 = 0.2984 | x1 = 0.3979 | x1 = 0.4961 | x1 = 0.5981 | x1 = 0.6917 | x1 = 0.799 | x1 = 0.8946 | x1 = 1
303.15 K | 90 ± 4 | 102 ± 4 | 113 ± 5 | 122 ± 5 | 129 ± 6 | 137 ± 6 | 144 ± 6 | 152 ± 6 | 158 ± 7 | 166 ± 7
308.15 K | 90 ± 4 | 103 ± 4 | 114 ± 5 | 123 ± 5 | 131 ± 6 | 138 ± 6 | 146 ± 6 | 153 ± 7 | 160 ± 7 | 167 ± 7
313.15 K | 91 ± 4 | 104 ± 4 | 115 ± 5 | 124 ± 5 | 132 ± 6 | 140 ± 6 | 147 ± 6 | 154 ± 7 | 161 ± 7 | 168 ± 7
318.15 K | 91 ± 4 | 105 ± 4 | 116 ± 5 | 125 ± 5 | 133 ± 6 | 141 ± 6 | 148 ± 6 | 155 ± 7 | 162 ± 7 | 169 ± 7
323.15 K | 92 ± 4 | 105 ± 4 | 118 ± 5 | 127 ± 5 | 135 ± 6 | 142 ± 6 | 150 ± 6 | 157 ± 7 | 164 ± 7 | 170 ± 7
328.15 K | 92 ± 4 | 106 ± 5 | 119 ± 5 | 128 ± 5 | 136 ± 6 | 144 ± 6 | 151 ± 6 | 158 ± 7 | 165 ± 7 | 172 ± 7
333.15 K | 93 ± 4 | 107 ± 5 | 120 ± 5 | 129 ± 6 | 138 ± 6 | 145 ± 6 | 153 ± 7 | 160 ± 7 | 166 ± 7 | 174 ± 7
338.15 K | 93 ± 4 | 108 ± 5 | 121 ± 5 | 131 ± 6 | 139 ± 6 | 147 ± 6 | 154 ± 7 | 161 ± 7 | 168 ± 7 | 175 ± 7
343.15 K | 94 ± 4 | 109 ± 5 | 122 ± 5 | 132 ± 6 | 141 ± 6 | 149 ± 6 | 156 ± 7 | 163 ± 7 | 169 ± 7 | 176 ± 7
348.15 K | 95 ± 4 | 110 ± 5 | 123 ± 5 | 133 ± 6 | 142 ± 6 | 150 ± 6 | 157 ± 7 | 164 ± 7 | 170 ± 7 | 177 ± 8
353.15 K | 95 ± 4 | 110 ± 5 | 124 ± 5 | 134 ± 6 | 142 ± 6 | 151 ± 6 | 158 ± 7 | 165 ± 7 | 170 ± 7 | 178 ± 8

O=S1(=O)CCCC1 [sulfolane] + O
molar heat capacity at constant pressure [J/K/mol]
Details | x1 = 0.0999 | x1 = 0.1998 | x1 = 0.2987 | x1 = 0.3995 | x1 = 0.4945 | x1 = 0.5987 | x1 = 0.6984 | x1 = 0.7904 | x1 = 0.8865 | x1 = 1
303.15 K | 87 ± 4 | 100 ± 4 | 112 ± 5 | 124 ± 5 | 135 ± 6 | 145 ± 6 | 155 ± 7 | 164 ± 7 | 173 ± 7 | 182 ± 8
308.15 K | 88 ± 4 | 100 ± 4 | 113 ± 5 | 125 ± 5 | 136 ± 6 | 147 ± 6 | 156 ± 7 | 166 ± 7 | 175 ± 7 | 184 ± 8
313.15 K | 88 ± 4 | 101 ± 4 | 114 ± 5 | 126 ± 5 | 137 ± 6 | 148 ± 6 | 157 ± 7 | 167 ± 7 | 176 ± 7 | 185 ± 8
318.15 K | 88 ± 4 | 102 ± 4 | 114 ± 5 | 127 ± 5 | 138 ± 6 | 149 ± 6 | 159 ± 7 | 168 ± 7 | 177 ± 8 | 186 ± 8
323.15 K | 89 ± 4 | 102 ± 4 | 115 ± 5 | 128 ± 5 | 139 ± 6 | 150 ± 6 | 160 ± 7 | 170 ± 7 | 179 ± 8 | 188 ± 8
328.15 K | 89 ± 4 | 103 ± 4 | 116 ± 5 | 129 ± 6 | 141 ± 6 | 152 ± 6 | 162 ± 7 | 172 ± 7 | 181 ± 8 | 189 ± 8
333.15 K | 89 ± 4 | 104 ± 4 | 117 ± 5 | 130 ± 6 | 142 ± 6 | 153 ± 7 | 164 ± 7 | 173 ± 7 | 183 ± 8 | 191 ± 8
338.15 K | 90 ± 4 | 104 ± 4 | 118 ± 5 | 131 ± 6 | 143 ± 6 | 155 ± 7 | 165 ± 7 | 175 ± 7 | 184 ± 8 | 193 ± 8
343.15 K | 90 ± 4 | 105 ± 4 | 119 ± 5 | 132 ± 6 | 144 ± 6 | 156 ± 7 | 167 ± 7 | 177 ± 8 | 186 ± 8 | 194 ± 8
348.15 K | 91 ± 4 | 106 ± 5 | 120 ± 5 | 133 ± 6 | 146 ± 6 | 158 ± 7 | 169 ± 7 | 179 ± 8 | 188 ± 8 | 197 ± 8
353.15 K | 91 ± 4 | 107 ± 5 | 121 ± 5 | 135 ± 6 | 148 ± 6 | 160 ± 7 | 171 ± 7 | 181 ± 8 | 191 ± 8 | 199 ± 8

COCCOCCOCCOC [2,5,8,11-tetraoxadodecane] + O
molar heat capacity at constant pressure [J/K/mol]
Details | x1 = 0.0999 | x1 = 0.1997 | x1 = 0.2967 | x1 = 0.3977 | x1 = 0.4983 | x1 = 0.5918 | x1 = 0.6926 | x1 = 0.7941 | x1 = 0.8686 | x1 = 1
303.15 K | 109 ± 5 | 141 ± 6 | 171 ± 7 | 198 ± 8 | 224 ± 10 | 250 ± 11 | 275 ± 12 | 300 ± 13 | 328 ± 14 | 359 ± 15
308.15 K | 110 ± 5 | 143 ± 6 | 173 ± 7 | 200 ± 9 | 227 ± 10 | 253 ± 11 | 278 ± 12 | 304 ± 13 | 332 ± 14 | 364 ± 15
313.15 K | 111 ± 5 | 144 ± 6 | 174 ± 7 | 202 ± 9 | 228 ± 10 | 254 ± 11 | 279 ± 12 | 306 ± 13 | 334 ± 14 | 366 ± 16
318.15 K | 112 ± 5 | 145 ± 6 | 175 ± 7 | 203 ± 9 | 229 ± 10 | 255 ± 11 | 281 ± 12 | 307 ± 13 | 335 ± 14 | 368 ± 16
323.15 K | 112 ± 5 | 146 ± 6 | 176 ± 7 | 204 ± 9 | 231 ± 10 | 256 ± 11 | 282 ± 12 | 309 ± 13 | 337 ± 14 | 370 ± 16
328.15 K | 113 ± 5 | 147 ± 6 | 177 ± 8 | 206 ± 9 | 232 ± 10 | 258 ± 11 | 283 ± 12 | 310 ± 13 | 339 ± 14 | 371 ± 16
333.15 K | 114 ± 5 | 148 ± 6 | 179 ± 8 | 207 ± 9 | 233 ± 10 | 259 ± 11 | 285 ± 12 | 312 ± 13 | 341 ± 14 | 373 ± 16
338.15 K | 114 ± 5 | 149 ± 6 | 180 ± 8 | 208 ± 9 | 235 ± 10 | 261 ± 11 | 286 ± 12 | 313 ± 13 | 342 ± 15 | 375 ± 16
343.15 K | 115 ± 5 | 150 ± 6 | 181 ± 8 | 210 ± 9 | 237 ± 10 | 263 ± 11 | 289 ± 12 | 316 ± 13 | 345 ± 15 | 379 ± 16
348.15 K | 116 ± 5 | 151 ± 6 | 183 ± 8 | 211 ± 9 | 238 ± 10 | 264 ± 11 | 290 ± 12 | 318 ± 14 | 347 ± 15 | 381 ± 16
353.15 K | 116 ± 5 | 152 ± 6 | 184 ± 8 | 212 ± 9 | 239 ± 10 | 265 ± 11 | 291 ± 12 | 318 ± 14 | 348 ± 15 | 382 ± 16
